# According to patent publication US10464941B2, “Therapeutic compounds” (REGENTS OF THE UNIVERSITY OF MINNESOTA, priority 2015, dated 2019):
# Marks after values point to notes of the source that are not given here.
# How the values were obtained:
# [1] = test system: CFA-induced mechanical hyperalgesia mouse model; assay: Complete Freund's Adjuvant (CFA) mechanical hyperalgesia, electronic von Frey; format: in vivo, mice; conditions: i.t.
# Procedure: Before injection of CFA baseline withdrawal thresholds (g) were obtained from a mechanical stimulation using an electronic von Frey anesthesiometer (IITC Life Sciences, Woodland Hills, USA) by applying an accurate force on both left and right hind paw. (2,3) The left hindpaws were then injected (intraplantar) with a 50% solution of CFA (10 μg, Sigma-Aldrich) in water while the mice are under isoflurane anesthesia (10). Twenty-four hours later the withdrawal threshold (g) was again measured prior to and after the test compound i.t. at 10, 20, 30 and 60 minutes to determine the peak time and subsequent ED50. % MPE was calculated ((Time-point withdrawal threshold with drug−CFA withdrawal threshold)/(Day 0 withdrawal threshold−CFA withdrawal threshold))*100 (Wade, C. L., et al., PLoS One 2013, 8, e79239/1-e79239/11, 11 pp; Martinov, T., et al., J Vis Exp 2013, e51212; Sorge, R. E., et al., J. Neurosci. 2011, 31, 15450-15454).
# [2] = test system: LPS-pretreated mice; assay: Effect of minocycline on MCC22 antinociception in LPS-pretreated mice (tail flick); format: in vivo; conditions: for MPE after minocycline: MCC22 1 pmol/mouse i.t.
# Procedure: Effect of Minocycline in Mice Pretreated by LPS and Blockage of Antinociception of MCC22.
# Three separate groups of mice (n=8) were pretreated with 1 mg/kg of LPS (i.p.). At 24 hours the baseline antinociception was measured using the tail flick assay to calculate % MPE. […] […] The dose used for MCC22 is a hundred times the ED50 dose of LPS pretreated mice with MCC22.
# [3] = test system: HbSS and HbAS mice; assay: Sickle cell disease mice, paw withdrawal frequency; format: in vivo, Townes transgenic humanized mice; conditions: 8.0 μmol/kg i.p.
# Procedure: Townes transgenic humanized mice expressing sickle hemoglobin (HbSS/HbAS) and normal human hemoglobin (HbAA) controls (4-12 weeks of age, 20-25 g) were used in this study. Mice were characterized for hyperalgesia by quantifying cutaneous mechanical sensitivity of the hind paw and forelimb grip force. Mechanical sensitivity of the hind paw was evaluated by determining the frequency of withdrawal responses and paw withdrawal threshold. The frequency of paw withdrawal evoked by a standard von Frey monofilament with a bending force of 9.3 mN applied to the plantar surface of the hind paws was determined from 10 trials on each paw. Withdrawal threshold was determined using an electronic von Frey anesthesiometer pressed against the plantar surface with increasing force until withdrawal occurred. To assess deep tissue hyperalgesia, the tensile force of peak forelimb exertion was measured using a computerized grip force meter. To evaluate the analgesic effects of MCC22, paw withdrawal frequency was determined before and at various times after administration of […] i.p.
# [4] = test system: control mice; assay: Radiant heat tail-flick antinociception, control (LPS-untreated) mice; format: in vivo
# Source text: Pain is a hallmark of many inflammatory conditions.
# [5] = test system: mice with cisplatin-induced hyperalgesia; assay: Cisplatin-induced peripheral neuropathy, mechanical hyperalgesia (von Frey); format: in vivo, C3H/HeJ mice; conditions: cisplatin model
# Procedure: Adult male C3H/HeJ mice were tested for mechanical paw withdrawal responses on 2 consecutive days prior to treatment by determining the frequency of hind paw withdrawal evoked by a standard von Frey monofilament with a bending force of 3.9 mN applied to the plantar surface of the hind paws. Mice were then given 1 mg/kg of cisplatin intraperitoneal (i.p.) daily for 7 consecutive days and on day 14 post-injection, mechanical hyperalgesia was assessed. Compounds were administered intrathecally (i.t.) and i.p. weekly to determine peak time effects and ED50/80.
# [6] = test system: IL-6; assay: Proinflammatory cytokine IL-6 ELISA in LPS-stimulated microglia (BV2); format: cell-based, murine
# Procedure: Murine primary microglia cell line (BV2) were cultured in DMEM with 10% heat-inactivated fetal bovine serum (FBS), 100 U/ml penicillin, 100 μg/ml streptomycin, 10 μg/ml gentamycin (all from Invitrogen, CA, USA). Cells were harvested on reaching 80% to 90% confluence by treating with 0.25% trypsin containing 1 mM EDTA for 5 minutes at 37° C. Cells (20,000/200 μl) were seeded on flat bottom 96 well plates and treated for 3 hrs with equimolar concentration (200 nM) of MCC22/Minocycline for 3 hrs followed by overnight treatment with LPS (1 μg/ml). At the end of the experiment, IL-6 was estimated by Sandwich ELISA using mouse IL-6 DuoSet kit (R&D Systems, Minneapolis, Minn.) in the culture supernatant.
# [7] = test system: WDR neuron; assay: Extracellular recordings from dorsal horn neurons, von Frey stimulation; format: in vivo, mice; conditions: hind paw, 5 sec, compared with control and vehicle
# Procedure: Mice were anesthetized with isoflurane while maintaining core temperature at 37° C. A laminectomy exposed the lumbar spinal cord then mice were secured in a spinal frame. Extracellular recordings from dorsal horn neurons with receptive fields located on the plantar surface of the hind paw were obtained using glass microelectrodes lowered into the spinal cord.
# Receptive fields (RFs) of dorsal horn neurons were identified by stroking the skin and applying mild pressure. Neurons were classified functionally as low threshold (LT), wide dynamic range (WDR) and high threshold (HT) using mechanical stimulation of graded intensities. RF areas were mapped using von Frey filaments. The discharge rate of spontaneous activity was recorded for 3 minutes. Mechanical response thresholds were determined and an increasing series of von Frey filaments were applied, each for 5 sec. Action potentials and the time of stimulus application were stored on a computer. Comparisons of discharge rates were made between vehicle and MCC22.
smiles,measurement,setting,value
"Cc1ccc(N(CCCN2CCC(Cc3ccc(C(N)=O)cc3)CC2)C(=O)C2CCN(C(=O)COCC(=O)NCCCCCCCCCCNC(=O)COCC(=O)N[C@H]3CC[C@@]4(O)C5Cc6ccc(O)c7c6[C@@]4(CCN5C)[C@H]3O7)CC2)cc1Cl [Compound 3e, N-(3-(4-(4-carbamoylbenzyl)piperidin-1-yl)propyl)-N-(3-chloro-4-methylphenyl)-1-(22-(((4aS,7S,7aR,12bS)-4a,9-dihydroxy-3-methyl-2,3,4,4a,5,6,7,7a-octahydro-1H-4,12-methanobenzofuro[3,2-e]isoquinolin-7-yl)amino)-5,18,22-trioxo-3,20-dioxa-6,17-diazadocosan-1-oyl)piperidine-4-carboxamide]",ED50 values (95% CI) CFA (mechanical),[1],0.019 pmol/mouse
same,MPE after minocycline,"[2]; 60 min after minocycline 45 mg/kg i.p., LPS pretreated",100%
same,MPE after minocycline,"[2]; 120 min after minocycline 45 mg/kg i.p., LPS pretreated",52.04%±17.04
same,MPE after minocycline,"[2]; 240 min after minocycline 45 mg/kg i.p., LPS pretreated",10.7%±5.17
same,% MPE,"[2]; LPS 24 hours, minocycline 4 hours, 1000 pmol/mouse MCC22",49.35±14.38 % MPE
same,FIG. 4 LPS/minocycline/MCC22 (value with interval),"[2]; LPS pretreated, minocycline 45 mg/kg i.p. prior to testing",1016 (54-1558)
same,time to reduced hyperalgesia (decrease in paw withdrawal frequency),[3],≤ 30 min
same,CONTROLS i.c.v./i.t. ratio,[4]; control mice,10.93^e
same,percent maximal possible effect at highest dose measured,"[4]; control mice, i.c.v., 500 pmol/mouse",49.7 ± 14.9%
same,acute tolerance (ED80 retested 24 hours later),"[4]; control mice, i.t.",(23.1-90.8)^b
same,CONTROLS ED50 (CI) i.t.,"[4]; control mice, i.t., tail flick",45.8 pmol/mouse
same,CONTROLS i.c.v./i.t. ratio,"[4]; control mice, listed as MCC22",11
same,potency increase over 3c,"[4]; i.t., LPS-untreated control mice",~4 fold
same,FIG. 4 naïve/MCC22 (value with interval),[4]; naïve mice,45.75 (23.05-90.81)
same,ED50 (95% CI) i.p.,[5]; i.p.,3.07 pmol/mouse
same,peak time,[5]; i.p.,30 min
same,tolerance,[5]; i.p.,did not exhibit tolerance
same,ED50 (95% CI) i.t.,[5]; i.t.,0.0004 pmol/mouse
same,change of potency with time,[5]; i.t.,increased in potency over 115 days
same,peak time,[5]; i.t.,20 min
same,tolerance,[5]; i.t.,no tolerance
same,attenuation of IL-6 secretion,"[6]; 200 nM, 3 hrs pretreatment, LPS 1 μg/ml overnight, microglial supernatant",~30%
same,IL-6 secretion when combined with minocycline,"[6]; MCC22 combined with minocycline, LPS",further attenuated
same,responses of WDR neuron evoked by 1.0 g (9.3 mN) von Frey filament,[7],significantly reduced responses
